# Source: patent publication US20220023317A1, “PREVENTING OR MITIGATING CHEMOTHERAPY INDUCED ALOPECIA USING VITAMIN D” (Berg LLC, priority 2013, published 2022)
# Legend:
# HEKa cells [1] = experiment: Pretreatment of cells with calcitriol before chemotherapy drugs; assay type: cell-based, human
# Method: Then these pretreated cells were utilized to set up the cell based assay. […] Three commonly used chemotherapy drugs (doxorubicin, cisplatin and erlotinib) were selected to evaluate calcitriol treated cells. […] In these experiments, the commercial drugs were serially diluted, starting at a concentration 4-times higher than the final desired concentration for cell incubation. […] The assay was carried out according to the previously described method in order to provide consistency and allow direct comparison. The result was based upon measurement of the total number of viable cells. […] Thus, a topical application of calcitriol could be applied at the same time as the systemic delivery of the chemotherapy. A staged application is not required.
# C3H/HeJ mouse = experiment: C3H/HeJ model of alopecia areata; assay type: in vivo; conditions: 0.2 μg for 15 days, observed 30 days
# Method: C3H/HeJ Model of Abpecia Areata. Retired breeders (8 months of age) were observed daily for the development of AA lesions. […] One group received ethanol vehicle control whereas the other received 0.2 μg 1,25(OH)2D3 in the alopecic lesions for 15 days.
# Sprague Dawley rats [2] = experiment: Neonatal rat model of CIA, 1,25(OH)2D3 in ethanol; assay type: in vivo; conditions: 0.2 μg in 150 μL ethanol topical, days 5-10; CTX 35 mg/kg; all 10 animals
# Text: Neonatal Rat model and PCA model. Sprague Dawley rats were purchased from Charles River Laboratories (Wilmington, Mass.). C3H/HeJ mouse were purchased from Jackson Laboratories (Bar Harbour, Me.).Rodents were housed and fed according to NIH guidelines. For experiments involving chemotherapy, cyclophosphamide was purchased from Mead Johnson (Evansville, Ind.) and Etoposide was obtained from Bristol-Myers (Evansville, Ind.). 1,25(OH)2D3 powder was a gift from Dr. Uskokovic (Hoffman-La Roche, Nutley, N.J.). For experiments involving C3H/HeJ mice, 1,25(OH)2D3 was purchased from Sigma (St. Louis, Mo.). Topical application of 1,25(OH)2D3. 1,25(OH)2D3 was dissolved in absolute ethanol and applied topically with an applicator. Control animals were similarly treated with vehicle only. […] For CIA experiments, 1,25(OH)2D3 was given daily beginning on day 5 after birth and ending on day 10. […] For CIA and PCA, the experimental group was treated with 0.2 μg of 1,25(OH)2D3 in 150 μL of absolute ethanol applied topically over the head and neck. In both instances, the control group received ethanol vehicle only. Cyclophosphamide (35 mg/kg) was given intraperitoneally for one day only. […] Both chemotherapies were started at 11 days of age. Alopecia was recorded on the tenth day after the first dose of chemotherapy.
# MCF-7 = experiment: Cell growth / viability assay; assay type: cell-based
# [3] = tested on: Sprague-Dawley or Long Evans rats; experiment: Second CIA study, calcitriol 1, 2 or 3 μg/mL; assay type: in vivo, rat
# Method: CIA was administered topically at concentrations of 1, 2, or 3 μg/mL on Days 5 to 10 followed by administration of various chemotherapeutic agents (etoposide; cyclophosphamide; doxorubicin and cyclophosphamide; cytosine beta-D arabinofurosamine; cytosine beta-D arabinofurosamine and doxorubicin; and paclitaxel).
# [4] = tested on: squamous cell carcinoma and human prostate cell carcinoma; conditions: 2.5 μg calcitriol 3 doses daily for 3 days, followed by paclitaxel; cited from earlier work
# Sprague Dawley rats [5] = experiment: PCA model, hair regrowth in alopecic rats; assay type: in vivo, rat; conditions: 0.2 μg topical days 22-35, rats alopecic from cyclophosphamide or etoposide; controls day 42
# Method: Topical application of 1,25(OH)2D3. 1,25(OH)2D3 was dissolved in absolute ethanol and applied topically with an applicator. Control animals were similarly treated with vehicle only. […] For CIA experiments, 1,25(OH)2D3 was given daily beginning on day 5 after birth and ending on day 10. […] For CIA and PCA, the experimental group was treated with 0.2 μg of 1,25(OH)2D3 in 150 μL of absolute ethanol applied topically over the head and neck. In both instances, the control group received ethanol vehicle only. Cyclophosphamide (35 mg/kg) was given intraperitoneally for one day only. […] Both chemotherapies were started at 11 days of age. Alopecia was recorded on the tenth day after the first dose of chemotherapy. […] Rats were randomized into two groups of ten rats each. One group received vehicle control, while the other received 0.2 μg 1,25(OH)2D3. […] Animals were observed until complete hair regrowth was obtained.
# C57BL/6 mice = conditions: topical calcitriol; cited from earlier work
# HEKa cells [6] = experiment: Real-time PCR Heat Shock Protein array, calcitriol-treated HEKa; assay type: cell-based, human; conditions: 0.1 μg/mL calcitriol, two independent experiments
# Method: Changes in mRNA levels were evaluated using real-time PCR quantification to assess mRNA levels in preselected subsets containing 80 pathway specific targets (see Appendix). The PCR array analysis utilized two groups of genes—those related to Heat Shock Proteins (SABiosciences), and those related to Neuroscience Ion Channels and Transporters (SABioscience). Cell culture: Primary human epidermal keratinocytes (HEKa) were maintained in Epilife Medium (Cascade Biologics, Inc., Portland Oreg.) along with Human Keratinocyte Growth Supplement (Cascade Biologics, Inc., Portland Oreg.). […] D3 treatment of HEKa cells: […] Vehicle control group of cells were treated with 5 mL media containing 1 μL of ethanol. Cells were harvested 3, 6, 16, 24, 48, or 72 hours after the start of the treatment. RNA isolation: Cells were lysed for RNA isolation at different treatment times using the RNeasy Mini kit (Qiagen, Inc., Valencia Calif.) following the manufacturer's instructions. RNA was quantified by measuring optical density at 260 nm. First Strand Synthesis: […] Real-time PCR: Products from the first strand synthesis were diluted with water, mixed with the SYBR green master mix (SABiosciences., Frederick Md.) and loaded onto PCR arrays. Real time PCR was run on the PCR Arrays (Heat Shock Protein Arrays, and Neuroscience and Ion Channel Arrays) (SABiosciences, Frederick Md.) on a Biorad CFX96. Data analyses were performed using the PCR array data analysis software available on the SABiosciences website.
compound,measurement,setting,value
"C=C1/C(=C\C=C2/CCC[C@]3(C)[C@@H]([C@H](C)CCCC(C)(C)O)CC[C@@H]23)C[C@@H](O)C[C@@H]1O [Calcitriol, (1a.3B.5Z.7E)-9,10-secocholesta-5,7,10(19)-triene-1,3,25-triol]",HEKa growth after prolonged calcitriol exposure,"HEKa cells [1]; 0.1 μg/mL calcitriol, two cell passages",stopped growing
same,"chemoprotection, pre-treatment group vs simultaneous treatment group","HEKa cells [1]; 0.1 μg/mL, doxorubicin, cisplatin, erlotinib",nearly identical
same,regrowth of hair in alopecic lesions,C3H/HeJ mouse,No regrowth of hair
same,protection from cyclophosphamide-induced alopecia,Sprague Dawley rats [2],did not develop alopecia
same,effect of calcitriol on cytotoxic effect of Doxorubicin,MCF-7,did not appear to appreciably alter
same,"response to doxorubicin, cisplatin, erlotinib after calcitriol exposure",MCF-7; 0.1 μg/mL calcitriol for two passages,did not alter
same,concentrations giving growth inhibition,MCF-7; high concentrations,> 0.5 µg/mL
same,concentrations giving growth stimulation,MCF-7; low concentrations,0.05 to 0.25 µg/mL
same,extent of hair growth,[3]; 1 μg/mL,hair growth was limited to the treated area
same,extent of hair growth,[3]; 3 μg/mL,hair growth was also observed on the dorsal region
same,protection against CIA,"[3]; 1 to 3 μg/mL applied for 6 hours, all chemotherapeutic agents tested",100%
same,effect on cure rate with cyclophosphamide,[3]; chloroleukemia induced with MIAC51,did not affect the cure rate
same,"protection from CIA, 6-hour exposure","[3]; topical, Days 5 to 10",complete protection
same,"protection from CIA, 1.5 hour exposure","[3]; topical, Days 5 to 10",no protection
same,tumor response,[4],significant tumor regression
same,day of total body hair regrowth,Sprague Dawley rats [5],50 days
same,follicular apoptosis induced by cyclophosphamide,C57BL/6 mice,significantly diminish the degree of follicular apoptosis
same,DNAJC6 mRNA regulation pattern,HEKa cells [6],Downregulated
same,HSF4 mRNA regulation pattern,HEKa cells [6],Upregulated at 48 hours
same,HSPA2 mRNA regulation pattern,HEKa cells [6],Upregulated at 48 hours
same,HSPB1 mRNA regulation pattern,HEKa cells [6],Down regulated at 48 hours
